Test results published in patent publication US10314825B2, “Agent for treatment of PBC” (KOWA COMPANY, LTD., priority 2017, dated 2019).

Tests used:
Format in all cases: in vivo, human
[1] = test system: patients with dyslipidemia showing a high level of triglyceride (TG); assay: Changes in total bilirubin levels after 12 weeks, clinical trial data (Example 1); conditions: for total bilirubin level, Rate of change (LSmean): 12 weeks vs baseline
Procedure: By using data (1965 cases in total) obtained in a clinical trial (8 tests with an administration period of 12 weeks or more) of Compound A, which had been performed for patients with dyslipidemia showing a high level of triglyceride (TG), the effects of Compound A for ALP and total bilirubin were investigated. Compound A was administered at a dose of 0.05 to 0.4 mg per day to Compound A group. […] Each compound was administered to Compound A group and a control group for 12 weeks, and changes in the levels of ALP before and after the administration are shown in Table 1 and FIG. 1, and changes in the levels of total bilirubin before and after the administration are shown in Table 2 and FIG. 2. Note that comparisons between the groups were investigated by using covariance analysis with baseline levels used as covariates.

[2] = test system: patients with dyslipidemia showing a high level of TG being treated with ursodeoxycholic acid; assay: Changes in total bilirubin levels after 12 weeks in patients being treated with ursodeoxycholic acid (Example 2); conditions: 0.05 to 0.4 mg per day
Procedure: (§1) Data of patients being treated with ursodeoxycholic acid (15 cases in total) were extracted from the data obtained in a clinical trial (8 tests with an administration period of 12 weeks or more) of Compound A, which had been performed for patients with dyslipidemia showing a high level of TG, the effects of Compound A for the ALP and the total bilirubin were investigated. Compound A was administered at a dose of 0.05 to 0.4 mg per day to Compound A group. Further, placebo was administered to a control group. Each compound was administered to Compound A group and a control group for 12 weeks, and changes in the levels of ALP before and after the administration are shown in Table 3 and FIG. 3, and changes in the levels of total bilirubin before and after the administration are shown in Table 4 and FIG. 4. Note that comparisons between the groups were investigated by using covariance analysis with baseline levels used as covariates.

[3] = test system: patients with dyslipidemia showing a high level of triglyceride (TG); assay: Changes in ALP levels after 12 weeks, clinical trial data (Example 1); conditions: for ALP level, Rate of change (LSmean): 12 weeks vs baseline
Procedure: Compound A was administered at a dose of 0.05 to 0.4 mg per day to Compound A group. […] Note that comparisons between the groups were investigated by using covariance analysis with baseline levels used as covariates.

[4] = test system: patients with dyslipidemia showing a high level of TG being treated with ursodeoxycholic acid; assay: Changes in ALP levels after 12 weeks in patients being treated with ursodeoxycholic acid (Example 2); conditions: 0.05 to 0.4 mg per day
Procedure: as §1

[5] = 0.05 to 0.4 mg per day, 12 weeks
[6] = 100 mg/day micronized fenofibrate capsule formulation
[7] = 106.6 mg/day solid dispersion fenofibrate tablet

Structure (SMILES)	effect on level of total bilirubin as compared with placebo [1, 5]	effect on level of total bilirubin [2]	effect on level of ALP as compared with placebo [3, 5]	effect on level of ALP compared with fenofibrate at the maximum clinical dose (200 mg per day) ([3]; dose of 0.1 mg or more, 12 weeks)	effect on level of ALP [4]	total bilirubin level, Rate of change (LSmean) [1, 6]	total bilirubin level, 12 Weeks ([1]; 100 mg/day micronized fenofibrate capsule formulation, 12 weeks, baseline 0.8) [mg/dL]	total bilirubin level, Rate of change (LSmean) [1, 7]	total bilirubin level, 12 Weeks ([1]; 106.6 mg/day solid dispersion fenofibrate tablet, 12 weeks, baseline 0.8) [mg/dL]	total bilirubin level, Rate of change (LSmean) ([1]; 200 mg/day micronized fenofibrate capsule formulation)	total bilirubin level, 12 Weeks ([1]; 200 mg/day micronized fenofibrate capsule formulation, 12 weeks, baseline 0.9) [mg/dL]	ALP level, Rate of change (LSmean) [3, 6]	ALP level, 12 Weeks ([3]; 100 mg/day micronized fenofibrate capsule formulation, 12 weeks, baseline 226.3) [IU/L]	ALP level, Rate of change (LSmean) [3, 7]	ALP level, 12 Weeks ([3]; 106.6 mg/day solid dispersion fenofibrate tablet, 12 weeks, baseline 235.3) [IU/L]	ALP level, 12 Weeks ([3]; 200 mg/day micronized fenofibrate capsule formulation, 12 weeks, baseline 222.5) [IU/L]
CC[C@@H](Oc1cccc(CN(CCCOc2ccc(OC)cc2)c2nc3ccccc3o2)c1)C(=O)O [Compound A, (R)-2-[3-[[N-(benzoxazol-2-yl)-N-3-(4-methoxyphenoxy)propyl]aminomethyl]phenoxy] butyric acid]	decreases dose-dependently	decreases the levels of ALP and total bilirubin	decreases dose-dependently	decreases the level of ALP more strongly than the fenofibrate	decreases the levels of ALP and total bilirubin	–	–	–	–	–	–	–	–	–	–	–
CC(C)OC(=O)C(C)(C)Oc1ccc(C(=O)c2ccc(Cl)cc2)cc1 [fenofibrate]	–	–	–	–	–	−5.2	0.7	−4.2	0.7	−9.3	0.7	−11.1	198.7	−14.7	198.8	182.5
